According to BigSolDB 2.1:

Cc1ccc(NC(=O)/C(=C/Cl)Sc2ccccc2)cc1
solubility (mole fraction)
Settings | 278.15 K | 283.15 K | 288.15 K | 293.15 K | 298.15 K | 303.15 K | 308.15 K | 313.15 K | 318.15 K
in 1,2-dichloroethane | 0.0353 | 0.0413 | 0.0512 | 0.0615 | 0.0773 | 0.0942 | 0.115 | 0.136 | 0.161
in 2-butanone | 0.0308 | 0.0365 | 0.0436 | 0.0529 | 0.0632 | 0.0772 | 0.0943 | 0.112 | 0.135
in 2-methyltetrahydrofuran | 0.0393 | 0.0466 | 0.0507 | 0.0604 | 0.0702 | 0.0858 | 0.103 | 0.126 | 0.145
in MTBE | 0.0068 | 0.0075 | 0.0092 | 0.0104 | 0.0132 | 0.0153 | 0.0187 | 0.0223 | 0.0277
in THF | 0.0849 | 0.0953 | 0.105 | 0.118 | 0.133 | 0.154 | 0.171 | 0.195 | 0.218
in acetone | 0.0216 | 0.0258 | 0.0296 | 0.0364 | 0.0452 | 0.0564 | 0.0707 | 0.0889 | 0.114
in acetonitrile | 0.0043 | 0.0051 | 0.0065 | 0.0086 | 0.0115 | 0.0148 | 0.02 | 0.0267 | 0.0362
in ethyl acetate | 0.0187 | 0.0233 | 0.0271 | 0.0331 | 0.0409 | 0.0522 | 0.0657 | 0.0794 | 0.0978
in isopropanol | 0.0019 | 0.0021 | 0.0025 | 0.0031 | 0.0041 | 0.0048 | 0.0063 | 0.0075 | 0.0093
in methyl acetate | 0.0153 | 0.0195 | 0.0228 | 0.028 | 0.0352 | 0.0471 | 0.0572 | 0.0693 | 0.0797
in tert-amyl alcohol | 0.0013 | 0.0015 | 0.0018 | 0.0026 | 0.0034 | 0.005 | 0.0068 | 0.0096 | 0.0129
in toluene | 0.014 | 0.0165 | 0.0202 | 0.0266 | 0.0318 | 0.0443 | 0.0551 | 0.069 | 0.0876
